In US11541028B2, “Peptide pharmaceuticals for treatment of NASH and other disorders” (Mederis Diabetes LLC, priority 2018, dated 2023):

How the values were obtained:
[1] = target: T1, human GLP-1 receptor (Homo sapiens, UniProt P43220); experiment: DiscoveRx LeadHunter cellular assay, cAMP stimulation, GLP-1 receptor in CHO cells; assay type: cell-based; details: human GLP-1 receptor in CHO cells (DiscoveRx); read-out: EC50 cAMP GLP-1 R
T1 construct: host or cells: CHO cells
Procedure: (§1) A further series of cellular assays was carried out with standard cellular assays (DiscoveRx, LeadHunter assays) using readout of cAMP stimulation or arrestin activation. Compounds were weighed precisely in an amount of about 1 mg and shipped to DiscoveRx for dilution and assay.

[2] = target: T2, human glucagon receptor (Homo sapiens, UniProt P47871); experiment: DiscoveRx LeadHunter cellular assay, cAMP stimulation, glucagon receptor in CHO cells; assay type: cell-based
T2 construct: host or cells: CHO cells
T2 sequence (P47871 26-477): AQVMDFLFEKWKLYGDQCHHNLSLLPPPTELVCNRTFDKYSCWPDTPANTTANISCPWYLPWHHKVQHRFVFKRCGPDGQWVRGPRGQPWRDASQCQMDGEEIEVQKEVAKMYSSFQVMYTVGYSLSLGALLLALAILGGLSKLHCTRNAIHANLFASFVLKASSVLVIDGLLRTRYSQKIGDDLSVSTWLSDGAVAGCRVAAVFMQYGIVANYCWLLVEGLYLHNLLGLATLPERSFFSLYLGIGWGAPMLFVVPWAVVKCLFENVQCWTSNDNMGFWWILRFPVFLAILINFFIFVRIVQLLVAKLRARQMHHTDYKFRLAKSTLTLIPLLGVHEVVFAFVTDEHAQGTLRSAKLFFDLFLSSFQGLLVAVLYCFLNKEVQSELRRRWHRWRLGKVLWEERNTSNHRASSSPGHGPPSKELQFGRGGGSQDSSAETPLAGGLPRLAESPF
Procedure: as §1

[3] = system: db/db mice; experiment: Glucose-lowering activity in db/db mice; assay type: in vivo; details: for food consumption versus liraglutide: day 2
Procedure: The 60 female db/db B6BKS (D) Leprdb/J (strain 000697) mice for this study were about 8-9 weeks old at arrival (Jackson Laboratory, Bar Harbor, Me.). […] One group of 8 female mice served as the vehicle control and received the vehicle, 0.2% BSA in saline, pH 7.4. One additional group of 8 female mice received the positive-control compound, liraglutide, at a dose level of 50 nmoles/kg. The test compounds, vehicle and positive-control compound were subcutaneously injected at a dose volume of 6 mL/kg on day 1 at about 0, 7 and 24 hours.
Clinical observations were conducted at receipt, prior to randomization, and daily from days 1 to 5. Body weights were measured and recorded at receipt, prior to randomization, and daily from days 1 to 5. Food consumption was measured and recorded daily from days 1 to 5. Blood samples for glucose analysis were collected pre-study (day −3) and at 0, 1, 2, 4, 8, 10, 24, 48, 72 and 96 hours following the first dose on day 1. At study termination all animals were euthanized, and the carcasses were discarded without further evaluation.

[4] = system: DIO-NASH mice; experiment: Biopsy-proven DIO-NASH mouse model; assay type: in vivo; details: for hepatocyte ballooning score (0-2), pre-study to post-study biopsy: animals that initially exhibited ballooning
Procedure: All mice entering the study were stratified based on liver pre-biopsy at week −3. Only mice with a fibrosis score ≥1 and a steatosis score ≥2 were included in the study. The stratified mice were randomized into treatment groups based on liver collagen type 1 alpha 1 (collal) quantification at week −3.
Body weight was measured daily for the entire study period. Food intake was measured daily for the first 14 days, and then weekly until study end. EchoMRI whole-body scanning was performed in week 11. At study end were measured plasma levels of alanine transaminase (ALT), aspartate transaminase (AST), γ-glutamyltransferase (GGT), triglycerides (TG) and total cholesterol (TC), liver levels of TG, TC, col1α1 and galectin-3, the expression levels of a wide variety of mRNAs in the liver, and the liver weight, and were performed liver biopsy/necropsy to assess steatosis, inflammation, ballooning and fibrosis of the liver.
For blood and plasma assays, blood samples were collected in heparinized tubes and plasma was separated and stored at −80° C. until analysis. ALT, AST, GGT, TG and TC levels were measured using commercial kits (Roche Diagnostics, Germany) and the Cobas™ C-501 autoanalyzer according to the manufacturer's instructions.
For liver tissue assays, the triglycerides and cholesterol content in the liver was measured using the Triglyceride and Cholesterol reagents (Cat. No. 22-045-795 and Cat. No. 22-045-780, respectively, Roche Diagnostics, Germany) and the Cobas™ C-501 autoanalyzer. Homogenized liver tissue was heated to 80-100° C. twice and centrifuged in a microcentrifuge, and the triglycerides and cholesterol content in the resulting supernatant was measured.
The body composition of the mice was assessed by an EchoMRI 3-1 body composition analyzer (EchoMRI, U.S.). Unanesthetised mice were placed in a plastic tube inside the MRI scanner for about 80 seconds. The body composition was expressed as fat tissue mass, fat-free tissue mass (lean tissue mass) and water.
For liver biopsy, mice were anesthetized by inhalation of isoflurane (2-3%). A small abdominal incision was made in the midline, and the left lateral lobe of the liver was exposed. A cone-shaped wedge of liver tissue (about 50 mg) was excised from the distal portion of the lobe and fixated in 10% neutral-buffered formalin (4% formaldehyde) for histology. The cut surface of the liver was instantly electro-coagulated using bipolar coagulation (ERBE VIO 100 electrosurgical unit). After pre-biopsy, the liver was returned to the abdominal cavity, the abdominal wall was sutured, and the skin was closed with staples. For post-operative recovery, the mice were administered carprofen (5 mg/kg) subcutaneously on the day of operation and on days 1 and 2 post-operation.
For histological staining, in brief, slides with paraffin-embedded sections were de-paraffinated in xylene and then rehydrated in a series of graded ethanol. For hematoxylin and eosin (H&E) staining, the slides were incubated in Mayer's Hematoxylin (Dako), washed in tap water, stained in Eosin Y solution (Sigma-Aldrich), hydrated, mounted with Pertex and then allowed to dry before scanning. For picrosirius red (PSR) staining, the slides were incubated in Weigert's iron hematoxylin (Sigma-Aldrich), washed in tap water, stained in picrosirius red (Sigma-Aldrich) and then washed twice in acidified water. Excess water was removed by shaking the slides, and the slides were dehydrated in three changes of 99% ethanol, cleared in xylene, mounted with Pertex and then allowed to dry before scanning.
For collagen type 1 alpha 1 (collal) and galectin-3 (GAL3) immunohistochemical (IHC) staining, after antigen retrieval and blocking of endogenous peroxidase activity, slides were incubated with the primary antibody (Cat. No. 1310-01 from Southern Biotech for col1α1, or Cat. No. 125402 from Biolegend for galectin-3). […]

[5] = 12 weeks QD (SP-1373 5/10 nmole/kg SC; semaglutide 10 nmole/kg SC; elafibranor 78 mole/kg PO)
[6] = 12 weeks QD (SP-1373 5/10 nmole/kg SC; semaglutide 10 nmole/kg SC; elafibranor PO)

T1 sequence (P43220 24-463): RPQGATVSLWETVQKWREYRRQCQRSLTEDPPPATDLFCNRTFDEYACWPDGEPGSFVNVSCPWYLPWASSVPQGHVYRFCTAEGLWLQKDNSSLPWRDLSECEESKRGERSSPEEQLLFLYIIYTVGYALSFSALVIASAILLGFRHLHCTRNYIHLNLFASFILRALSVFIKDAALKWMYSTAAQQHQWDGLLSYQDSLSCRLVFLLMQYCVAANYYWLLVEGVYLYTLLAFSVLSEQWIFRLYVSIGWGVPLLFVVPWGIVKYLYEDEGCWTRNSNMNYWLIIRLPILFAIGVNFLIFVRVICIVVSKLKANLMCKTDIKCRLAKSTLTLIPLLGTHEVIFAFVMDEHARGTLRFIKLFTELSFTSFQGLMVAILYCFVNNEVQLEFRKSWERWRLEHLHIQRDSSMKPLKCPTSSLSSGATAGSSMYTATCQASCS

CCCCCCCCCCCCCCCCCCO[C@@H]1O[C@H](CO[C@H]2O[C@H](C(=O)NCCCC[C@H](NC(=O)[C@@H](NC(=O)[C@H](Cc3ccccc3)NC(=O)[C@H](CCC(=O)O)NC(=O)[C@@H]3CCCCNC(=O)CC[C@H](NC(=O)[C@H](CC(=O)O)NC(=O)[C@H](CC(C)C)NC(=O)[C@H](Cc4ccc(O)cc4)NC(=O)[C@H](CCCCN)NC(=O)[C@H](CO)NC(=O)[C@H](Cc4ccc(O)cc4)NC(=O)[C@H](CC(=O)O)NC(=O)[C@H](CO)NC(=O)[C@@H](NC(=O)[C@H](Cc4ccccc4)NC(=O)[C@@H](NC(=O)CNC(=O)[C@H](CCC(N)=O)NC(=O)C(C)(C)NC(=O)[C@@H](N)Cc4c[nH]cn4)[C@@H](C)O)[C@@H](C)O)C(=O)N[C@@H](CCC(N)=O)C(=O)N[C@@H](C)C(=O)N[C@@H](C)C(=O)N3)[C@@H](C)CC)C(=O)N[C@@H](Cc3c[nH]c4ccccc34)C(=O)N[C@@H](CC(C)C)C(=O)N[C@@H](CC(C)C)C(=O)N[C@@H](CCC(N)=O)C(=O)N[C@H](C(N)=O)[C@@H](C)O)[C@H](O)[C@H](O)[C@H]2O)[C@@H](O)[C@H](O)[C@H]1O [EU-A1026]
EC50 [1]: 34 pM | EC50 [2]: 486 pM | body weight changes versus vehicle ([3]; db/db mice, high-dose (300 nmoles/kg) sc at 0, 7 and 24 hours, days 2 and 3): Significant body weight changes versus vehicle | food consumption versus liraglutide ([3]; db/db mice, high-dose (300 nmoles/kg)): significantly different from liraglutide | body weight changes versus vehicle ([3]; db/db mice, low-dose (100 nmoles/kg) sc at 0, 7 and 24 hours, days 3 and 4): Significant body weight changes versus vehicle | food consumption versus liraglutide ([3]; db/db mice, low-dose (100 nmoles/kg)): significantly different from liraglutide | db/db Mice-Mean Blood Glucose (mg/dL) 0 hr ([3]; dose 300 nmole/kg sc): 531 mg/dL | db/db Mice-Mean Blood Glucose (mg/dL) 10 hr ([3]; dose 300 nmole/kg sc): 399 mg/dL | db/db Mice-Mean Blood Glucose (mg/dL) 24 hr ([3]; dose 300 nmole/kg sc): 438 mg/dL | db/db Mice-Mean Blood Glucose (mg/dL) 48 hr ([3]; dose 300 nmole/kg sc): 505 mg/dL

CCCCCCCCCCCO[C@@H]1O[C@H](C(=O)NCCCC[C@H](NC(=O)[C@@H](NC(=O)[C@H](Cc2ccccc2)NC(=O)[C@H](CCC(=O)O)NC(=O)[C@@H]2CCCCNC(=O)CC[C@H](NC(=O)[C@H](CC(=O)O)NC(=O)[C@H](CC(C)C)NC(=O)[C@H](Cc3ccc(O)cc3)NC(=O)[C@H](CCCCN)NC(=O)[C@H](CO)NC(=O)[C@H](Cc3ccc(O)cc3)NC(=O)[C@H](CC(=O)O)NC(=O)[C@H](CO)NC(=O)[C@@H](NC(=O)[C@H](Cc3ccccc3)NC(=O)[C@@H](NC(=O)CNC(=O)[C@H](CCC(N)=O)NC(=O)C(C)(C)NC(=O)[C@@H](N)Cc3c[nH]cn3)[C@@H](C)O)[C@@H](C)O)C(=O)N[C@@H](CCC(N)=O)C(=O)N[C@@H](C)C(=O)N[C@@H](C)C(=O)N2)[C@@H](C)CC)C(=O)N[C@@H](Cc2c[nH]c3ccccc23)C(=O)N[C@@H](CC(C)C)C(=O)N[C@@H](CC(C)C)C(=O)N[C@@H](CCC(N)=O)C(=O)N[C@H](C(N)=O)[C@@H](C)O)[C@@H](O)[C@H](O)[C@H]1O [EU-A1168]
time for which elevated blood glucose level was reduced to the normal range ([3]; db/db mice, 250 nmol/kg subcutaneously at t=0 and 7 hr (FIG. 9)): around 72 hr | db/db Mice-Mean Blood Glucose (mg/dL) 0 hr ([3]; dose 250 nmole/kg sc): 380 mg/dL | db/db Mice-Mean Blood Glucose (mg/dL) 10 hr ([3]; dose 250 nmole/kg sc): 133 mg/dL | db/db Mice-Mean Blood Glucose (mg/dL) 24 hr ([3]; dose 250 nmole/kg sc): 169 mg/dL | db/db Mice-Mean Blood Glucose (mg/dL) 48 hr ([3]; dose 250 nmole/kg sc): 164 mg/dL

CSc1ccc(C(=O)/C=C/c2cc(C)c(OC(C)(C)C(=O)O)c(C)c2)cc1 [elafibranor]
liver fibrosis score (0-4), picrosirius red ([4]; 12 weeks QD (SP-1373 5/10 nmole/kg SC; elafibranor PO)): reduced liver fibrosis in the majority of animals | liver triglycerides (TG) level [4, 5]: little or no effect | liver weight [4, 5]: increased liver weight | total liver collagen type 1 alpha 1 staining (measure of liver fibrosis) [4, 5]: modest effect | total liver galectin-3 staining (biomarker for liver inflammation and fibrosis) [4, 5]: essentially no effect | body weight [4, 6]: less body weight decrease | liver total cholesterol (TC) level [4, 6]: little or no effect | hepatocyte ballooning score (0-2), pre-study to post-study biopsy [4, 6]: showed no ballooning

semaglutide
body weight [4, 6]: less body weight decrease | hepatocyte ballooning score (0-2), pre-study to post-study biopsy [4, 6]: showed no ballooning | liver steatosis, histology with hematoxylin and eosin stain ([4]; semaglutide 10 nmole/kg SC QD 12 weeks): moderate decrease in hepatosteatosis
